The values below are quoted from earlier work in US5026825A, “Intranasal calcitonin formulations” (Rhone-Poulenc Rorer Pharmaceuticals Inc., priority 1988, dated 1991).

Ends that are not written are not given here.

For one data set the following is noted: calcitonin used in Example 6; USP 4,391,747.
Des asparagine-3-Calcitonins: the potency is given as 4,300 MRC units/mg.

The data set is the same for the next values; noted with them: calcitonins used in Examples 7-10; from cited US patents.
As for 1A-endo-glycine-calcitonin, the potency is 4,650 IU/mg.

With D-Arginine^24 Calcitonins, the potency is listed as 5,000 IU/mg.

Consider Glycine^8 -D-Arginine^24 Calcitonins, for which the potency is reported as 3,500 IU/mg.

Take “[16-Alanine] Calcitonins [16-alanine calcitonin]”: the potency is reported as 6,200 IU/mg.

The same data set, now with this note: in vivo.
For “beef calcitonin: natural calcitonin of beef (bovine) (CSNLSTCVLSAYWKDLNNYHRFSGMGFGPETP; ends and bridges not checked; cysteine pairing not given here; UniProt P01260 1-32, looked up)”, the “potency (level of hypocalcemic activity)” value is on record as 100 to 200 MRC U/mg peptide.

Regarding “chicken calcitonin (CASLSTCVLGKLSQELHKLQTYPRTDVGAGTP; ends and bridges not checked; cysteine pairing not given here; UniProt P07660 82-113, looked up) [natural calcitonin of chicken]”, the “potency (level of hypocalcemic activity)” value is reported as 4,000 to 6,000 MCR (Medical Research Council) U/mg peptide.

For the substance eel calcitonin, the “potency (level of hypocalcemic activity)” value is reported as 2,000 to 4,000 MRC U/mg peptide.

In the case of “hog calcitonin: natural calcitonin of hog (porcine) (CSNLSTCVLSAYWRNLNNFHRFSGMGFGPETP; ends and bridges not checked; cysteine pairing not given here; UniProt P01259 1-32, looked up)”, the “potency (level of hypocalcemic activity)” value is listed as 100 to 200 MRC U/mg peptide.

“man calcitonin: natural calcitonin of man (human)”: the “potency (level of hypocalcemic activity)” value is reported as 100 to 200 MRC U/mg peptide.

On to “rat calcitonin: natural calcitonin of rat (CGNLSTCMLGTYTQDLNKFHTFPQTSIGVGAP; ends and bridges not checked; cysteine pairing not given here; UniProt P01257 85-116, looked up)”, for which the “potency (level of hypocalcemic activity)” value is recorded as 400 MRC U/mg.
